The values below come from patent US4069379A, “Semi-synthetic oleandomycins” (Pfizer Inc., priority 1976, dated 1978).

Experiment [1] has as its system Staph. aureus 01A005. Nature of the experiment: minimum inhibitory concentration (MIC), Staph. aureus 01A005. Format: cell-based. The following applies: Staphylococcus aureus; in vitro; Staph. aureus 01A005, Gram-positive. An excerpt:
(§1) The oleandomycin compounds of the present invention are effective in inhibiting the growth of microorganisms, especially Gram-positive microorganisms. The high activity against Gram-positive organisms shown by these compounds is contrasted in some respects with the lower activity against Gram-negative organisms. The following table illustrates the in vitro antibiotic spectrum of the compounds of the instant invention. The tests were run according to the "minimum inhibitory concentration"(MIC) procedure of Ericsson and Sherris [H. M. Ericsson and J. C. Sherris, Acta. Pathol. Microbiol. Scand. Suppl., 217B 64 (1971)].

The test system of a further experiment is Staph. aureus 01A400R. Put plainly: minimum inhibitory concentration (MIC), Staph. aureus 01A400R. The following applies: Staphylococcus aureus, read-out: MIC Values, Staph. aureus 01A400R. In kind it is cell-based.
Text: as §1

A further experiment concerns E. coli 51A266. Nature of the experiment: minimum inhibitory concentration (MIC), E. coli 51A266. Format: cell-based. The note with it: Escherichia coli; in vitro; E. coli 51A266, Gram-negative.
Text: as §1

In another experiment the test system is Klebsiella pn. 53A009. Put plainly: minimum inhibitory concentration (MIC), Klebsiella pn. 53A009. Format: cell-based. The following applies: in vitro; Klebsiella pn. 53A009, Gram-negative.
Text: as §1

In another experiment the test system is Salm. typhm. 58D009. Nature of the experiment: minimum inhibitory concentration (MIC), Salm. typhm. 58D009. Format: cell-based. The following applies: in vitro; Salm. typhm. 58D009, Gram-negative.
Text: as §1

The next experiment deals with B. subtilis. Nature of the experiment: minimum inhibitory concentration (MIC), B. subtilis. Format: cell-based. The following applies: Bacillus subtilis, in vitro, Gram-positive.
Text: as §1

Experiment [2] has as its system Staph. aureus 01A005. Put plainly: protection against in vivo infection of mice infected with Staph. aureus 01A005. The following applies: subcutaneous or oral administration to mice infected with Staph. aureus 01A005; compared with natural oleandomycin. The method, then:
The ability of the compounds of the present invention to protect against in vivo infections was determined by subcutaneous or oral administration to mice infected with Staph. aureus 01A005. Using the test method described by Retsema [J. A. Retsema et al., Antimicr.

[3] abbreviates: in vitro, Staph. aureus 01A400R, Gram-positive.

Converted amounts (≈) assume the structure as drawn. Read-outs that look alike come from different tables or passages of the source.

One may read the MIC as the least concentration at which growth counts as inhibited. Turning to `C=C1CC(C)C(OC2OC(C)CC(N(C)C)C2OC(C)=O)C(C)C(OC2CC(OC)C(OC(C)=O)C(C)O2)C(C)C(=O)OC(C)C(C)C(OC(C)=O)C(C)C1=O` (centres unmarked) [Compound II Ac Ac Ac, 8,8a-Deoxy-8,8a-Methylene-2',4",11-Triacetyloleandomycin], the MIC against Staph. aureus 01A005 [1] was 25 µg/mL (≈ 31.3 µM); with Staph. aureus 01A400R (setting [3]) it was 200 µg/mL (≈ 251 µM); in the experiment on E. coli 51A266, above 200 µg/mL; against Klebsiella pn. 53A009, above 200 µg/mL; in the experiment on Salm. typhm. 58D009, above 200 µg/mL.
As for `C=C1CC(C)C(OC2OC(C)CC(N(C)C)C2OC(C)=O)C(C)C(OC2CC(OC)C(OC(C)=O)C(C)O2)C(C)C(=O)OC(C)C(C)C(OC(=O)C(F)(F)F)C(C)C1=O` (centres unmarked) [Compound II Ac Ac drawing 7, 8,8a-Deoxy-8,8a-Methylene-2',4"-Diacetyl-11-Trifluoroacetyloleandomycin], the MIC with Staph. aureus 01A005 [1] was 25 µg/mL (≈ 29.3 µM); with Staph. aureus 01A400R (setting [3]), 200 µg/mL (≈ 235 µM); in the experiment with B. subtilis, 25 µg/mL (≈ 29.3 µM); in the experiment with E. coli 51A266, above 200 µg/mL; with Klebsiella pn. 53A009, above 200 µg/mL; against Salm. typhm. 58D009 it was above 200 µg/mL.
For the compound `C=C1CC(C)C(OC2OC(C)CC(N(C)C)C2OC(C)=O)C(C)C(OC2CC(OC)C(O)C(C)O2)C(C)C(=O)OC(C)C(C)C(OC(C)=O)C(C)C1=O` (centres unmarked) [Compound II Ac H Ac, 8,8a-Deoxy-8,8a-Methylene-2',11-Diacetyloleandomycin], the MIC was 3.12 µg/mL (≈ 4.13 µM) against Staph. aureus 01A005 [1]; above 200 µg/mL in the experiment with Staph. aureus 01A400R (setting [3]); 3.12 µg/mL (≈ 4.13 µM) with B. subtilis; above 200 µg/mL against E. coli 51A266; above 200 µg/mL against Klebsiella pn. 53A009; above 200 µg/mL against Salm. typhm. 58D009.
As to `C=C1CC(C)C(OC2OC(C)CC(N(C)C)C2O)C(C)C(OC2CC(OC)C(O)C(C)O2)C(C)C(=O)OC(C)C(C)C(O)C(C)C1=O` (centres unmarked) [Compound II H H H, 8,8a-Deoxy-8,8a-Methylene-Oleandomycin], the minimum inhibitory concentration (MIC) against Staph. aureus 01A005 [1] is 6.25 µg/mL (≈ 9.3 µM); with Staph. aureus 01A400R (setting [3]), 25 µg/mL (≈ 37.2 µM); in the experiment with E. coli 51A266 it was above 200 µg/mL; in the experiment on Klebsiella pn. 53A009 it was above 200 µg/mL. The protection against infection result in the experiment on Staph. aureus 01A005 [2] is given as “protection against infection which was comparable to natural oleandomycin”.
Take `COC1CC(OC2C(C)C(=O)OC(C)C(C)C(OC(C)=O)C(C)C(=O)C3(CC3)CC(C)C(OC3OC(C)CC(N(C)C)C3OC(C)=O)C2C)OC(C)C1OC(C)=O` (centres unmarked) [Compound III Ac Ac Ac, 8,8a-Deoxy-8,8a-Cyclopropyl-2',4",11-Triacetyloleandomycin]: the MIC in the experiment on Staph. aureus 01A005 [1] is 1.56 µg/mL (≈ 1.92 µM); in the experiment on Staph. aureus 01A400R (setting [3]), 12.5 µg/mL (≈ 15.4 µM); against B. subtilis, 3.12 µg/mL (≈ 3.84 µM); in the experiment on E. coli 51A266, above 200 µg/mL; in the experiment with Klebsiella pn. 53A009, above 200 µg/mL; in the experiment on Salm. typhm. 58D009, above 200 µg/mL.
On to `COC1CC(OC2C(C)C(=O)OC(C)C(C)C(O[Si](C)(C)C)C(C)C(=O)C3(CC3)CC(C)C(OC3OC(C)CC(N(C)C)C3OC(C)=O)C2C)OC(C)C1OC(C)=O` (centres unmarked) [Compound III Ac Ac Me3 Si, 8,8a-Deoxy-8,8a-Cycloproyl-2',4"-Diacetyl-11-Trimethylsilyloleandomycin], for which the MIC was 3.12 µg/mL (≈ 3.7 µM) with Staph. aureus 01A005 [1]; above 200 µg/mL in the experiment with Staph. aureus 01A400R (01A400R); 12.5 µg/mL (≈ 14.8 µM) against B. subtilis; above 200 µg/mL in the experiment on E. coli 51A266; above 200 µg/mL in the experiment on Klebsiella pn. 53A009; above 200 µg/mL against Salm. typhm. 58D009.
Turning to `COC1CC(OC2C(C)C(=O)OC(C)C(C)C(OC(C)=O)C(C)C(=O)C3(CC3)CC(C)C(OC3OC(C)CC(N(C)C)C3OC(C)=O)C2C)OC(C)C1O` (centres unmarked) [Compound III Ac H Ac, 8,8a-Deoxy-8,8a-Cyclopropyl-2',11-Diacetyloleandomycin], the MIC against Staph. aureus 01A005 [1] was 0.2 µg/mL (≈ 0.26 µM); in the experiment on Staph. aureus 01A400R (setting [3]), 3.12 µg/mL (≈ 4.05 µM); against B. subtilis, 0.78 µg/mL (≈ 1.01 µM); in the experiment with E. coli 51A266 it was above 200 µg/mL; against Klebsiella pn. 53A009, above 200 µg/mL; against Salm. typhm. 58D009, above 200 µg/mL.
For `COC1CC(OC2C(C)C(=O)OC(C)C(C)C(O)C(C)C(=O)C3(CC3)CC(C)C(OC3OC(C)CC(N(C)C)C3O)C2C)OC(C)C1O` (centres unmarked) [Compound III H H H, 8,8a-Deoxy-8,8a-Cyclopropyloleandomycin], the MIC with Staph. aureus 01A005 [1] is 0.2 µg/mL (≈ 0.292 µM); with Staph. aureus 01A400R (setting [3]) it was 1.56 µg/mL (≈ 2.27 µM); in the experiment on B. subtilis, 0.39 µg/mL (≈ 0.569 µM); against E. coli 51A266, above 200 µg/mL; against Klebsiella pn. 53A009, above 200 µg/mL; in the experiment on Salm. typhm. 58D009 it was above 200 µg/mL. The protection against infection entry in the experiment on Staph. aureus 01A005 [2] was “protection against infection which was comparable to natural oleandomycin”.
